{"source": "patent US20230263822A1", "about": "“MODULATION OF FACTOR 11 EXPRESSION” (Ionis Pharmaceuticals, Inc., priority 2008, published 2023)", "assay": "Collagenase-induced intracerebral hemorrhage model: hemorrhage volume, neurologic deficit score, mortality (Example 25)", "assay_type": "in vivo, BALB/c mice", "procedure": "In a first cohort, ISIS 404071 was administered subcutaneously to BALB/c mice twice a week for two weeks at a dose 40 mg/kg. […] In a third cohort, ISIS 421208 ([…], 8 mismatches to murine Factor 11, incorporated herein as SEQ ID NO: 14) was administered subcutaneously to BALB/c mice twice a week for two weeks at a dose 40 mg/kg. In a fourth cohort, PBS was administered to BALB/c mice twice a week for two weeks.\nTwo days after receiving their final dose, all mice in all cohorts were anesthetized with […] of avertin. Next, the mice were injected at −1 mm AP, 1 mm R ML, −4 mm DV from bregma flat skull with a 10 μL Hamilton syringe containing 0.075 U collagenase (150 U/mL). Collagenase was delivered over 5 minutes and the needle was kept in place for an additional 5 minutes to prevent reflux. The mice were then analyzed for hemorrhagic size, neurologic deficit score, and mortality.\nTable 37 presents the hemorrhage volume detected in mice after collagenase treatment, Table 38 presents the neurologic deficit score of the mice, and Table 39 presents the mortality rate of the mice. Neurological deficit is measured by a standard scoring system where no deficiency is zero and severe deficit is five.", "key": {"[1]": {"conditions": "collagenase-induced intracerebral hemorrhage, 40 mg/kg twice a week for two weeks"}}, "data": [{"substance": "ISIS 404071: antisense oligonucleotide targeted to murine Factor 11 mRNA, TGGTAATCCACTTTCAGAGG, target start site 869 (chemistry not given here)", "values": [{"measurement": "Hemorrhagic volume after collagenase treatment", "setting": "40 mg/kg s.c. twice a week for two weeks", "result": 38, "unit": "mm^3"}, {"measurement": "Neurologic Deficit Score after collagenase treatment", "setting": "40 mg/kg s.c. twice a week for two weeks, score zero (no deficiency) to five (severe deficit)", "result": 3.8}, {"measurement": "% mortality after collagenase treatment", "setting": "ISIS oligonucleotides 40 mg/kg s.c., warfarin 2 mg/kg intraperitoneally, twice a week for two weeks", "result": 20, "unit": "%"}, {"measurement": "hemorrhagic size", "setting": "[1]", "result": "did not have a significant effect"}, {"measurement": "mortality", "setting": "[1]", "result": "did not have a significant effect"}, {"measurement": "neurologic deficit score", "setting": "[1]", "result": "did not have a significant effect"}]}]}
